For 29 molecules, inhibition and MIC results are on record in ChEMBL document CHEMBL5584210, “Design, synthesis and antitubercular assessment of 1, 2, 3-triazole incorporated thiazolylcarboxylate derivatives” (Bioorg Med Chem Lett, 2024).

≈ marks a conversion by molar mass, not a printed value.

Data set [1] can be described thus: Cytotoxicity against mouse RAW264.7 cells assessed as inhibition of cell growth at 25 ug/ml incubated for 48 hrs by MTT assay relative to control. Particulars: at 25 µg/mL. The class given is toxicity, cell-based.
Data set [2] has as its system Mycobacterium tuberculosis. Description: Antimycobacterial activity against Mycobacterium tuberculosis H37Rv by alamar blue assay. Type of data set: functional.

Regarding `CCc1cc(-c2nc(C)c(C(=O)OCc3cn(-c4cccc(C)c4)nn3)s2)ccn1`, in data set [1], the inhibition at 48 h, 25 ug/ml worked out at 30.1%. In data set [2], this molecule had an MIC of 6.25 µg/mL (≈ 14.9 µM).
On to `CCc1cc(-c2nc(C)c(C(=O)OCc3cn(-c4ccc(C)c([N+](=O)[O-])c4)nn3)s2)ccn1`, for which the MIC in data set [2] is 12.5 µg/mL (≈ 26.9 µM).
Still for that read-out and setting: the figure for `CCc1cc(-c2nc(C)c(C(=O)OCc3cn(-c4ccccc4Cl)nn3)s2)ccn1` is 25 µg/mL (≈ 56.8 µM).
The molecule `CCc1cc(-c2nc(C)c(C(=O)OCc3cn(-c4ccc(Br)cc4)nn3)s2)ccn1` returned an MIC in data set [2] of over 25 µg/mL.
`CCc1cc(-c2nc(C)c(C(=O)OCc3cn(-c4ccccc4OC)nn3)s2)ccn1` returned a minimal inhibitory concentration (MIC) in data set [2] of over 25 µg/mL.
For the molecule `CCCc1cc(-c2nc(C)c(C(=O)OCc3cn(-c4ccc(CC)cc4)nn3)s2)ccn1`, in data set [1], the inhibition at 48 h, 25 ug/ml is 27.2%. Moreover, the lowest concentration to inhibit growth in data set [2] (MIC) was 1.56 µg/mL (≈ 3.49 µM).
Turning to `CCc1cc(-c2nc(C)c(C(=O)OCc3cn(-c4cccc([N+](=O)[O-])c4)nn3)s2)ccn1`, inhibition of growth in data set [2] (MIC) required 12.5 µg/mL (≈ 27.7 µM).
The same measure, in the same setting: with `CCCc1cc(-c2nc(C)c(C(=O)OCc3cn(-c4ccc(C)cc4)nn3)s2)ccn1` the figure was over 25 µg/mL.
`CCc1ccc(-n2cc(COC(=O)c3sc(-c4ccnc(CC)c4)nc3C)nn2)cc1`: the inhibition at 48 h, 25 ug/ml in data set [1] stood at 29.2%. Further, the MIC in data set [2] was 3.12 µg/mL (≈ 7.2 µM).
In data set [2], `CCCc1cc(-c2nc(C)c(C(=O)OCc3cn(-c4cccc(Cl)c4)nn3)s2)ccn1` had an MIC of 12.5 µg/mL (≈ 27.5 µM).
On the same count and under the same terms, with `CCc1cc(-c2nc(C)c(C(=O)OCc3cn(-c4c(C)cc(C)cc4C)nn3)s2)ccn1` the figure was 25 µg/mL (≈ 55.9 µM).
As to `CCCc1cc(-c2nc(C)c(C(=O)OCc3cn(-c4cccc(OC)c4)nn3)s2)ccn1`, in data set [1], the inhibition at 48 h, 25 ug/ml is 25.7%. In data set [2], this molecule had an MIC of 6.25 µg/mL (≈ 13.9 µM).
As to `CCc1cc(-c2nc(C)c(C(=O)OCc3cn(-c4ccc(OC)cc4)nn3)s2)ccn1`, in data set [2], it took 12.5 µg/mL (≈ 28.7 µM) to inhibit growth (MIC).
On the same count and under the same terms, with `CCc1cc(-c2nc(C)c(C(=O)OCc3cn(-c4ccc(C)cc4)nn3)s2)ccn1` the figure was 25 µg/mL (≈ 59.6 µM).
In data set [2], `CCCc1cc(-c2nc(C)c(C(=O)OCc3cn(-c4cccc([N+](=O)[O-])c4)nn3)s2)ccn1` showed an MIC of over 25 µg/mL.
Same read-out and setting: the figure for `CCCc1cc(-c2nc(C)c(C(=O)OCc3cn(-c4ccccc4)nn3)s2)ccn1` is 12.5 µg/mL (≈ 29.8 µM); for `CCCc1cc(-c2nc(C)c(C(=O)OCc3cn(-c4ccc(Br)cc4)nn3)s2)ccn1` it is 25 µg/mL (≈ 50.2 µM).
In the case of `CCc1cc(-c2nc(C)c(C(=O)OCc3cn(-c4cccc(OC)c4)nn3)s2)ccn1`, the inhibition at 48 h, 25 ug/ml in data set [1] was determined as 26%. The same molecule gave an MIC in data set [2] of 6.25 µg/mL (≈ 14.4 µM).
`CCc1cc(-c2nc(C)c(C(=O)OCc3cn(-c4cccc(Cl)c4)nn3)s2)ccn1`: it took 25 µg/mL (≈ 56.8 µM) to inhibit growth in data set [2] (MIC).
On to `CCc1cc(-c2nc(C)c(C(=O)OCc3cn(-c4ccc(C)cc4C)nn3)s2)ccn1`, for which the inhibition at 48 h, 25 ug/ml in data set [1] turned out to be 21.9%. This molecule also yielded a minimal inhibitory concentration (MIC) in data set [2] of 6.25 µg/mL (≈ 14.4 µM).
Molecule `CCc1cc(-c2nc(C)c(C(=O)OCc3cn(-c4ccccc4)nn3)s2)ccn1` had an MIC in data set [2] of 25 µg/mL (≈ 61.7 µM).
On the same count and under the same terms, with `CCCc1cc(-c2nc(C)c(C(=O)OCc3cn(-c4ccc(Cl)cc4)nn3)s2)ccn1` the figure was over 25 µg/mL; with `CCc1cc(-c2nc(C)c(C(=O)OCc3cn(-c4ccccc4C)nn3)s2)ccn1`, 12.5 µg/mL (≈ 29.8 µM).
In data set [2], `CCCc1cc(-c2nc(C)c(C(=O)OCc3cn(-c4ccc(OC)cc4)nn3)s2)ccn1` displayed a minimal inhibitory concentration (MIC) of over 25 µg/mL.
In data set [2], `CCc1cc(-c2nc(C)c(C(=O)OCc3cn(-c4ccc(Cl)cc4)nn3)s2)ccn1` returned an MIC of 25 µg/mL (≈ 56.8 µM).
With `CCc1cc(-c2nc(C)c(C(=O)OCc3cn(-c4ccccc4F)nn3)s2)ccn1`, the minimal inhibitory concentration (MIC) in data set [2] is 12.5 µg/mL (≈ 29.5 µM).
`CCCc1cc(-c2nc(C)c(C(=O)OCc3cn(-c4ccccc4F)nn3)s2)ccn1` returned an MIC in data set [2] of 25 µg/mL (≈ 57.1 µM).
Same read-out and setting: the figure for `O=C(O)c1cn(C2CC2)c2cc(N3CCNCC3)c(F)cc2c1=O` [CIPROFLOXACIN] is 1.56 µg/mL (≈ 4.71 µM); for `CC[C@@H](CO)NCCN[C@@H](CC)CO` [ETHAMBUTOL] it is 3.12 µg/mL (≈ 15.3 µM).
